{"source": "patent US7691563B2", "about": "“Method for alleviating pain using sphingosine-1-phosphate and related compounds, and assays for identifying such compounds” (Sanofi-Aventis Pharma GmbH, priority 2003, dated 2010)", "type_in_all_cases": "cell-based, human", "key": {"[1]": {"system": "HeLa cells", "assay": "Calcium imaging in HeLa cells"}, "[2]": {"system": "cAMP", "assay": "cAMP accumulation in HeLa cells", "settings": "0.5 μM S1P", "description": "Panel A: cAMP accumulation in HeLa cells was measured in the absence and presence of serum as described above. The mean ±SEM (Standard error of the mean) of three determinations is shown. Panel A: cAMP accumulation in HeLa cells was measured in the absence (black bars) and presence (grey bars) of 0.5 μM S1P at varying times as described in Materials and Methods section. The mean ±SEM of three determinations is shown. Spinal cord samples were sonicated and centrifugeged at 4° C. for 20 minutes with 18.000×g. The supernatent was used for cAMP measurements. The cAMP accumulation in the cells was determined by the cAMP Detection Kit (Assay Design Inc, Ann Arbor, Mich.) according to the manufacturers instructions."}, "[3]": {"system": "adenylyl cyclase (AC)", "assay": "AC activity of HeLa cell lysates after treatment of cells", "settings": "HeLa cells", "description": "Panel B: Adenylyl cyclase activity of HeLa cell lysates was measured in the absence and presence of serum as described in Materials and Methods section. The Gsα* (80 nM; grey bars)- and forskolin (100 μM; black bars)-stimulated specific activities of ACV were 124±10 pmol/mg/min and 464±89 pmol/min/mg, respectively. The basal activity was 11.75±2 pmol/mg/min. The mean ±SE of at least 2 experiments each done in triplicates is shown. Student T test: *p<0.001.\nPanel E: Serum-starved HeLa cells were treated with sense, antisense, and 3M-as ODNs as described above. After 24 hours the cells were incubated for 30 minutes with 10% FBS. Cells were harvested and AC activity in presence of Gαs* (80 nM; grey bars) and forskolin (100 μM; black bars) was determined as described above. Data from at least 3 experiments measured in triplicates are presented as the mean±SEM. Student T test: *p<0.01, **p<0.05.\nPanel B: Serum-starved HeLa cells were treated for varying times with 0.5 μM S1P. Cells were harvested and AC activity in presence of 80 nM Gαs* was determined as described in Material and Methods. Data from at least 4 experiments measured in triplicates are presented as the mean ±SE.\nPanel C: Serum-starved HeLa cells were treated with sense, antisense, and 3M-as ODNs as described in the Materials and Methods section. After 24 hours the cells were incubated for the indicated times with 0.5 μM S1P. Cells were harvested and AC activity in presence of Gαs* (80 nM) was determined as described above. Data are presented as the mean ±SEM of three determinations.\nPanel A: Serum-starved HeLa cells were treated with 0.5 μM S1P for 3 (grey bars) or 60 (black bars) minutes. Prior incubation with S1P the cells were incubated for 24 hours with […] pertussis toxin (PTX). AC activity in was determined presence of 80 nM Gαs*. Data from at least 2 experiments measured in triplicates are presented as the mean ±SE.\nPanel B: Serum-starved HeLa cells were treated with 0.5 μM S1P. Prior incubation with S1P the cells were incubated for 20 minutes with 10 μM U73122, R031-8220, BAPTA-AM or U0126. AC activity in was determined presence of 80 nM Gαs*. Data from at least 2 experiments measured in triplicates are presented as the mean ±SE.\nSpinal cords were lysed in 25 mM Hepes, pH 7.4, 1 mM EGTA and cell membranes were prepared as described by Kassis and Fishman. Aliquots were stored at −80° C. until use. AC activity assays were performed in a volume of 100 μl for 15 min at room temperature in the presence of 100 μM MgCl2 as previously described (Patel et al., 2002). Gsα* (80 nM) or forskolin (100 μM) were used to stimulate AC enzyme activity in membranes (10 μg protein).\nThe sequences of the oligodeoxynucleotides (ODNs) were chosen as published previously (Scholich et al., 2001). Sense: 5′-CTGTTCATGCCGGTT-3′, antisense: 5′-AACCGGCATGAACAG-3′, and antisense ODN harboring three mutations (3M-as; mutations are underlined): 5′-AATCCGTATGAACAC-3′. HeLa-cells were plated on 35 mm dishes (300,000 cells) and grown in DMEM medium (Gibco, Karlsruhe, Germany) containing 10% FBS and 1% penicillin/streptoMycin for 24 hours. The ODNs (3 μM each) were introduced into the cells by transfections using Tfx20 (Promega, Madison, Wis.) in 1 ml serum-free medium according to the instructions of the manufacturer. Two hours later, 1 ml DMEM (Gibco, Karlsruhe, Germany) containing 10% FBS was added. The cells were then incubated for 6 hours. Then the medium was exchanged against serum-free DMEM (Gibco, Karlsruhe, Germany), followed by an incubation for 16 hours in serum-free DMEM (Gibco, Karlsruhe, Germany) before being treated with 10% serum or […] S1P. The cells were then used for Western blots by adding boiling 1× Laemmli buffer or they were havested for AC activity assays as described above."}, "[4]": {"system": "PAM", "assay": "PAM translocation to the plasma membrane in HeLa cells (immunofluorescence)", "description": "Panel B: HeLa cells were treated with 10% fetal bovine serum for different times and stained with anti-PAM antibodies to monitor the subcellular localization.\nPanel B: HeLa cells were treated with 0.5 μM S1P for 30 minutes and stained with anti-PAM antibodies to monitor the subcellular localization.\nPanel C: Time dependence of PAM translocation in HeLa cells. Serum-starved HeLa cells were treated with 0.5 μM S1P for different times and stained with anti-PAM antibodies to monitor the subcellular localization.\nPanel D: HeLa cells were treated with 0.5 μM S1P for 20 minutes and stained with anti-PAM antibodies to monitor the subcellular localization. Prior S1P-treatment were the cells incubated for 24 hours with […] pertussis toxin (PTX), for 20 minutes with, 1 μM GF109203X, 10 μM U0126, BAPTA-AM, U73122 or Ro31-223.\nTo monitor distribution of PAM in HeLa cells, cells were grown on glass coverslips in DMEM with 10% FBS and 1% penicillin/streptoMycin (Gibco, Karlsruhe, Germany). To visualize translocation of PAM HeLa, cells were serum starved overnight and subsequently treated with 10% serum for 2 hours. Wherever indicated, cells were preincubated for 30 minutes in the presence of different concentrations of inhibitors. The cells were fixed in 4% paraformaldehyde (Sigma, Taufkirchen, Germany) in PBS for 10 minutes and then permeablized in 0.1% Triton X-100 for another 5 minutes. The coverslips were blocked for 1 hour in 3% BSA in PBS and then incubated for 1 hour with anti-PAM antibody (1:50 dilution). This was followed by incubation with FITC-labeled goat anti-rabbit antibody in PBS containing 3% BSA. The cells were then washed with PBS and mounted. For the analysis confocal (BioRad, Hercules, Calif.) and regular flourescence microscopes (Nikon, Duesseldorf, Germany) were used."}}, "note": "Several values for one entry are separate records, joined by “and”; a condition that tells them apart may be missing. Equal entries are not always repeated.", "data": [{"compound": "CCCCCCCCCCCCC/C=C/[C@@H](O)[C@@H](N)COP(=O)(O)O", "note": "[S1P, Sphingosine-1-Phosphate]", "values": [{"measurement": "intracellular calcium", "setting": "[1]", "value": "induced a PLC-dependent calcium increase"}, {"measurement": "intracellular cAMP content", "setting": "[2]", "value": "reduced"}, {"measurement": "Gαs-stimulated AC activity", "setting": "[3]; 0.5 μM S1P", "value": "reduced"}, {"measurement": "time to first decrease of Gαs-stimulated AC activity", "setting": "[3]; after incubation with S1P", "value": "≤ 3", "unit": "min"}, {"measurement": "PAM translocation among candidate substances for the serum factor", "setting": "[4]; HeLa cells", "value": "induced PAM translocation"}, {"measurement": "cells with PAM translocation to the plasma membrane", "setting": "[4]; HeLa cells treated with 0.1-5 μM S1P", "value": "70-90% and 80%"}, {"measurement": "time at which PAM appeared at the plasma membrane", "setting": "[4]; HeLa cells, 500 nM S1P", "value": 10, "unit": "min"}, {"measurement": "time at which PAM started to disappear from the plasma membrane", "setting": "[4]; HeLa cells, 500 nM S1P", "value": 1, "unit": "h"}, {"measurement": "time of PAM translocation to the plasma membrane", "setting": "[4]; HeLa cells, 0.1-5 μM S1P", "value": "10 to 30", "unit": "min"}]}]}
